Key:
human OAT1 = target: T1, human OAT1 (Homo sapiens, UniProt Q4U2R8)
T1 sequence (Q4U2R8 1-563): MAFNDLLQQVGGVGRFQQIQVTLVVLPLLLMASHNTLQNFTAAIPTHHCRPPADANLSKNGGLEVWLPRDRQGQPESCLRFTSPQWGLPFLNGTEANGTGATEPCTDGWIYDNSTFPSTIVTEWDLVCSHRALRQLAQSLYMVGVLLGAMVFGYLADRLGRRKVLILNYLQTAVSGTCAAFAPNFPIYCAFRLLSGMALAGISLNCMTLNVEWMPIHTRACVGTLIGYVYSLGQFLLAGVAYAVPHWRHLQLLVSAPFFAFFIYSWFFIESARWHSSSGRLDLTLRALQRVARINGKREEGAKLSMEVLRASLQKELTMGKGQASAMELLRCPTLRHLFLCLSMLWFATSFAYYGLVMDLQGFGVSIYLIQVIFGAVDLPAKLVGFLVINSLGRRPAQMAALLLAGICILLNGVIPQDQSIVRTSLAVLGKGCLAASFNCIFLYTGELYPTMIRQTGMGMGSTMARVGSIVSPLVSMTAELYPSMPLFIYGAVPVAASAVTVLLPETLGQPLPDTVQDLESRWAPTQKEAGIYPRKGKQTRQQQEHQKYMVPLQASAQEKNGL

OAT3 = target: T2, OAT3 (Homo sapiens, UniProt Q8TCC7); assay: Transporter substrate study using HEK293-OAT3 cells; conditions: for uptake ratio (UR) mediated by OAT3: 10 μM
T2 sequence (Q8TCC7 1-542): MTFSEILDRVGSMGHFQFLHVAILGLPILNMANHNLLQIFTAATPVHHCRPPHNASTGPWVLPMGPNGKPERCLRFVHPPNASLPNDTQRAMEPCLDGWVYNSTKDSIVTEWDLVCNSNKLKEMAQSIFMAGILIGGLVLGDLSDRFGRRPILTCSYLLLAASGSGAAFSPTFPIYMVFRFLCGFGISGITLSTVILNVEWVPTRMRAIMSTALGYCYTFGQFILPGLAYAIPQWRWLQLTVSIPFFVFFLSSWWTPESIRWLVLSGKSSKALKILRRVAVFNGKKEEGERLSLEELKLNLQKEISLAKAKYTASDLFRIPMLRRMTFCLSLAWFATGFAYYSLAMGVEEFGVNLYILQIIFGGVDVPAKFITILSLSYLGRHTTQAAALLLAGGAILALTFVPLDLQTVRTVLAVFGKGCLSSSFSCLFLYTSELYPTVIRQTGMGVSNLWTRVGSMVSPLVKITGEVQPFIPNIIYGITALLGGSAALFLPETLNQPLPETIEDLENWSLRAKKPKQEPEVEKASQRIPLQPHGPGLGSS

MRP2 = MRP2 (Homo sapiens, UniProt Q92887); assay: biochemical
Protocol: The substrate study was performed at 37°C with a water bath using a mixture comprising of 10 μL of vesicle membranes (5 mg/mL) and 10 μL of Buffer A2 (replaced with 5 μL Reagent G and 5 μL inhibitors for the inhibitor groups). The mixture was pre-incubated at 37°C with a water bath for 5 min. Meanwhile, 10 μL of dosing solution of the compounds or probe substrates and 10 μL of Reagent C2 (ATP) or D2 (AMP, as the non-ATP dependent control) were mixed and pre-incubated at 37°C for 5 min. Following pre-incubation, the two mixtures were mixed and incubated for an additional 5 min.
After incubation, the reactions were stopped with ice-cold Buffer B, filtered through a 96-well filter plate to separate vesicle-associated ligands from the matrix, and washed five times with ice-cold Buffer B. The vesicles on the filer plate were dissolved using 50 μL of 80% methanol (v/v), and the filtrate was collected by centrifugation at 2000 rpm for 2 min. The dissolution and centrifugation procedures were repeated. […] The supernatant was collected to quantify the amount of compound or substrate using LC-MS. […]
For the substrate assay, the amount of compounds in the vesicle was determined with LC-MS to calculate the transport activity, UR, and inhibition rate using Equations 11–13, which were used to determine whether the compounds were substrates of the transporter. […]

UGT = assay: Human hepatocyte UGT induction study, conversion of MPA to MPAG; type: cell-based; conditions: 50 μM, 96 h treatment
Protocol: Cryopreserved human hepatocytes were recovered in a pre-warmed incubation medium, diluted to a viable cell density (∼0.7 × 10^6 cells/mL) using a plating medium, followed by the addition of 100 μL hepatocytes into each well of a collagen I-coated 96-well plate. The cell monolayer was formed after an overnight incubation period at 37°C under 5%CO2. The plating medium was then replaced with an incubation medium for further culture. On the second day, an incubation medium containing different concentrations of either compound, the inducer omeprazole (final concentration of 50 μM), or vehicle (0.1% [v/v] dimethyl sulfoxide [DMSO]). […] At the end of the incubation period, the medium was replaced with a substrate for UGT and MPA. Following a further incubation of 15 or 30 min at 37°C under 5% CO2, 100 μL of the reaction medium was transferred to 400 μL of ice-cold methanol containing internal standard (IS) to terminate the reaction. Finally, the supernatant was collected after centrifugation at 4,000 rpm for 10 min and analyzed for glucuronide formation using liquid chromatography-mass spectrometry (LC-MS).
The formation of glucuronide metabolites, as determined with LC-MS, was used to calculate the formation rate linked to enzyme activity according to Equation 1. Formation rate pmol/10^6 cells/min=amount of glucuronide metabolites formation pmol/number of cells 10^6 cells×incubation time min (1)
The percentage of enzyme activity relative to the NC (%) was determined using Equation 2. Relative enzyme activity % of NC=formation rate in the compound−treated group/that in NC×100 (2)

UGT1A9/2B7 = conditions: 50 μM, 96 h treatment; 100 μM substrate, 30 min
Protocol: (§1) Cryopreserved human hepatocytes were recovered in a pre-warmed incubation medium, diluted to a viable cell density (∼0.7 × 10^6 cells/mL) using a plating medium, followed by the addition of 100 μL hepatocytes into each well of a collagen I-coated 96-well plate. The cell monolayer was formed after an overnight incubation period at 37°C under 5%CO2. The plating medium was then replaced with an incubation medium for further culture. On the second day, an incubation medium containing different concentrations of either compound, the inducer omeprazole (final concentration of 50 μM), or vehicle (0.1% [v/v] dimethyl sulfoxide [DMSO]). […] At the end of the incubation period, the medium was replaced with a substrate for UGT and MPA. […] Finally, the supernatant was collected after centrifugation at 4,000 rpm for 10 min and analyzed for glucuronide formation using liquid chromatography-mass spectrometry (LC-MS).
(§2) The formation of glucuronide metabolites, as determined with LC-MS, was used to calculate the formation rate linked to enzyme activity according to Equation 1. […]
(§3) The percentage of enzyme activity relative to the NC (%) was determined using Equation 2. […]
(§4) The formation of 4-trifluoromethyl-7-hydroxycoumarin glucuronide and estradiol-3-glucuronide was detected to evaluate the induction of UGT enzyme activity compared with that in the NC group.

UGT1A1/1A3 = conditions: 50 μM, 96 h treatment; 100 μM substrate, 30 min
Protocol: as §1, §2, §3, §4

[1] = criterion UR ≥2.0 and inhibition ≥50%

Chain of MRP2 (Q92887 whole entry): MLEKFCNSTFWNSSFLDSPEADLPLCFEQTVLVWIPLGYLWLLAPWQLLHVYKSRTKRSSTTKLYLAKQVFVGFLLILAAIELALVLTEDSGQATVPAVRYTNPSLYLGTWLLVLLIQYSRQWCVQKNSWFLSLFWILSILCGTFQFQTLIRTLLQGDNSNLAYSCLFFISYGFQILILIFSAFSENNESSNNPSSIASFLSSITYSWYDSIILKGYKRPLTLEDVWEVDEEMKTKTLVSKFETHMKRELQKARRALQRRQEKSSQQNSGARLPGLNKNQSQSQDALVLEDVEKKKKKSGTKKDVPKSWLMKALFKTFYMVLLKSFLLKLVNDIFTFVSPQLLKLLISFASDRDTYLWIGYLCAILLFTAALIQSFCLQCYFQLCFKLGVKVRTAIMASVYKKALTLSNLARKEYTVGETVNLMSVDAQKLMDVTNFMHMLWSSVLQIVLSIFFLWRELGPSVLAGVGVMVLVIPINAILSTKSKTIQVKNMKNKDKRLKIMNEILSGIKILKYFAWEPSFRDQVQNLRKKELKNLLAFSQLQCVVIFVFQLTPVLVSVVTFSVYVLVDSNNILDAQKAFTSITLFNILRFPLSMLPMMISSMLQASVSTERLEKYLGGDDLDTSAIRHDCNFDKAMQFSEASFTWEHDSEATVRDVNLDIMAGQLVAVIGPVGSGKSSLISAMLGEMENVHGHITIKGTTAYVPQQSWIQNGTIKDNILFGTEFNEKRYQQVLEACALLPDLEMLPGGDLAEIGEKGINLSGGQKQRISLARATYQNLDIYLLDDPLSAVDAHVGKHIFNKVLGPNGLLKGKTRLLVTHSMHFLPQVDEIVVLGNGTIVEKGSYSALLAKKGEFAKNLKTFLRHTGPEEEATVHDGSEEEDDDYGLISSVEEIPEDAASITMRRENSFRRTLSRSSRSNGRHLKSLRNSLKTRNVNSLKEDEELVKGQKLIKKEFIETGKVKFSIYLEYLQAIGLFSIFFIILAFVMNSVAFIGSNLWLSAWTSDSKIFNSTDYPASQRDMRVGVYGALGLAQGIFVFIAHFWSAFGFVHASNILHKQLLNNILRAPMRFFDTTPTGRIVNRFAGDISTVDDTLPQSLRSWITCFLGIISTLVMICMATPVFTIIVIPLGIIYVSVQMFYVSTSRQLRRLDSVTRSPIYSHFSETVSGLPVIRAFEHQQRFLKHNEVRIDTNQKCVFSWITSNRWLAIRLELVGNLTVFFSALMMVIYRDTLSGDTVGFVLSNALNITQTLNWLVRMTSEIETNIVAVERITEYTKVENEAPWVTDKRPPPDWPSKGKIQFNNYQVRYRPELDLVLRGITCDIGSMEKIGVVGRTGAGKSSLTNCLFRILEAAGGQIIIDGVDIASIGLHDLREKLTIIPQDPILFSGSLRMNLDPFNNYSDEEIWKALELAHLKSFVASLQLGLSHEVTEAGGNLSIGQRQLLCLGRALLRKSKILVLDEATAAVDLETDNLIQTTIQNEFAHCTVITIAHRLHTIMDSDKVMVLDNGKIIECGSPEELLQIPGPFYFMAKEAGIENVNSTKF

Q: With `COc1c(C)c2c(c(O[C@@H]3O[C@H](C(=O)O)[C@@H](O)[C@H](O)[C@H]3O)c1C/C=C(\C)CCC(=O)O)C(=O)OC2` [MPAG, 7-O-mycophenolic acid glucuronide] as the compound, how does the “uptake ratio (UR) mediated by OAT1” value (human OAT1; 0.5, 1, and 10 μM) read?
A: less than 2.0

Q: What about the “substrate of OAT1 (in words)” value (human OAT1; [1]) of the same compound?
A: not a substrate of OAT1

Q: And the “uptake ratio (UR) mediated by OAT3” value (OAT3; following incubation with probenecid)?
A: 1.19

Q: And the “uptake ratio (UR) mediated by OAT3” value (OAT3; without inhibitor)?
A: 2.47

Q: And the “substrate of OAT3 (in words)” value (OAT3; [1])?
A: weak substrate for OAT3

Q: `CCc1oc2ccccc2c1C(=O)c1cc(Br)c(O)c(Br)c1` [benzbromarone] was tested. Which IC50 (MRP2) did it give?
A: 17.6 µM

Q: How did the “formation of MPAG, % of NC (Mean)” value (UGT) turn out when `COc1ccc2[nH]c([S+]([O-])Cc3ncc(C)c(OC)c3C)nc2c1` (stereo not drawn) [omeprazole] was run?
A: 110 % of NC

Q: And the “4-trifluoromethyl-7-hydroxycoumarin glucuronidation activity, % of NC (Mean)” value (UGT1A9/2B7)?
A: 145 % of NC

Q: What about the “β-estradiol glucuronidation activity, % of NC (Mean)” value (UGT1A1/1A3) of the same compound?
A: 243 % of NC
